According to US20230345986A1, “CONJUGATED DIYNES AND THEIR USE AS FLAVOR MODIFIERS” (Firmenich SA, priority 2020, published 2023):

Assays:
[1] = system: panel of 20 taste testers; assay: Sensory testing for salt enhancement (taste panel, sodium chloride solution); format: in vivo; design: key to Difference (salt enhancement effect relative to the same salt solution without the enhancer): None: No effect; +: Weak; ++: Moderate; +++: Strong
Description: Compounds 101 and 130 were evaluated for their salt-enhancement effects by a panel of 20 taste testers. The test compounds were added to solutions (0.25 wt %) sodium chloride, and tested for their sale enhancement effect relative to the same salt solution without the enhancer.

[2] = Sensory testing for cooling/burning (tasting of compound in water solution); format: in vivo; conditions: for taste attributes: 20 mg/L in water solution
Description: At 2 mg/L, Compound 130 was tasteless.
At 39.2 mg/L, the tingling effect was weak. […] At 2 mg/L, Compound 101 was tasteless.

[3] = 10 ppm test compound in 0.25 wt % sodium chloride solution
[4] = 20 ppm test compound in 0.25 wt % sodium chloride solution

SMILES	Difference (salt enhancement effect relative to the same salt solution without the enhancer) [1, 3]	Remarks (salt enhancement effect) [1, 3]	Difference (salt enhancement effect relative to the same salt solution without the enhancer) [1, 4]	Remarks (salt enhancement effect) [1, 4]	taste description ([2]; 2 mg/L in water solution)	taste attributes [2]	tingling effect ([2]; 39.2 mg/L in water solution)	taste description ([2]; 125 mg/L in water solution)	taste description ([2]; 42 mg/L in water solution)
C#CC#CCCCCC(=O)N1CCCCC1 [Compound 101, nona-6,8-diynoic acid piperidide]	None	No effect	+	Weak	tasteless	astringent, bitter, herbal, earthy and green	weak	tingling (mid intensity), bitter, metallic, astringent and triggered an uncomfortable feeling in the throat when swallowed	–
C#CC#CCC/C=C/C=C/C(=O)N1CCCCC1 [Compound 130, (E,E)-2,4-undecadien-8,10-diynoic acid piperidide]	++	Moderate	++	Moderate	tasteless	astringent, bitter, salty, earthy, herbal, and cooling, but no warm and hot sensation was perceived	–	–	long-lasting warm, hot, weak cooling after taste, as well as bitter and astringent
